From US20240269139A1, “COMPOUNDS FOR TARGETED PROTEIN DEGRADATION OF KINASES” (DANA-FARBER CANCER INSTITUTE, INC., priority 2020, published 2024)
Where two headings read alike, the source gives them in different places.

How the values were obtained:
Assay type in all cases: cell-based
[1] = molecular target: T1, protein kinases (human kinome) (Homo sapiens, UniProt O14965)
T1 sequence (O14965 1-403): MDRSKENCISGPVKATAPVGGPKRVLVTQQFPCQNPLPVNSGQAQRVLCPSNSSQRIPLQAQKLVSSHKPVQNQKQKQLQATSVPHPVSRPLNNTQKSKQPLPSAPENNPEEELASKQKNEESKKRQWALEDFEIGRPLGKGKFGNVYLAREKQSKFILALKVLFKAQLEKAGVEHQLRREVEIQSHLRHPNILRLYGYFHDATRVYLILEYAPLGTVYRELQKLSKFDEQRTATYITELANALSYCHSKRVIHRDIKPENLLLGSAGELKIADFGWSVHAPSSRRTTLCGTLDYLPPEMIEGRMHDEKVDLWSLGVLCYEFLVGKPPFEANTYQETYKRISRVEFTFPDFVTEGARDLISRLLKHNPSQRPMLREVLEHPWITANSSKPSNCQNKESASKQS

[2] = molecular target: protein kinases (human kinome) (Homo sapiens, UniProt P06493); settings: CDK1 P06493
protein kinases (human kinome) (Homo sapiens, UniProt P06493), sequence (P06493 whole entry): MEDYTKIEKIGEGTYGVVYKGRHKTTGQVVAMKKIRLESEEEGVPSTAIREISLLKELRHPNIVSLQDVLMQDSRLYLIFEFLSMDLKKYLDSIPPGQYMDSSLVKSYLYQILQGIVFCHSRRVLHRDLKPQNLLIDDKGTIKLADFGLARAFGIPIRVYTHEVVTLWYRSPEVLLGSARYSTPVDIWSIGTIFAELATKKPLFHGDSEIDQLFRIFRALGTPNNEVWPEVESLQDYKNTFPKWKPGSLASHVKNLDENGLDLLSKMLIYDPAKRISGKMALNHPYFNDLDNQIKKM

[3] = molecular target: protein kinases (human kinome) (Homo sapiens, UniProt P11802)
protein kinases (human kinome) (Homo sapiens, UniProt P11802), sequence (P11802 whole entry): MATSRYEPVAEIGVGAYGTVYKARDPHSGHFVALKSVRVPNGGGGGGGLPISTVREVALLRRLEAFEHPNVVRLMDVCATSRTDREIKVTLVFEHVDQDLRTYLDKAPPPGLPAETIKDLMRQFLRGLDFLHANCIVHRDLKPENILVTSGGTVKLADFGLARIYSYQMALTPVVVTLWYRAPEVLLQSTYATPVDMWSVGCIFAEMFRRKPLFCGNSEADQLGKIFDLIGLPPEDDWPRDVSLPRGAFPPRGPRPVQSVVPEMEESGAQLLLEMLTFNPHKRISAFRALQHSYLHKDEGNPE

[4] = molecular target: protein kinases (human kinome) (Homo sapiens, UniProt P24941)
[5] = molecular target: protein kinases (human kinome) (Homo sapiens, UniProt P45984); settings: MAPK9 P45984-1, experiment wp104
protein kinases (human kinome) (Homo sapiens, UniProt P45984), sequence (P45984 whole entry): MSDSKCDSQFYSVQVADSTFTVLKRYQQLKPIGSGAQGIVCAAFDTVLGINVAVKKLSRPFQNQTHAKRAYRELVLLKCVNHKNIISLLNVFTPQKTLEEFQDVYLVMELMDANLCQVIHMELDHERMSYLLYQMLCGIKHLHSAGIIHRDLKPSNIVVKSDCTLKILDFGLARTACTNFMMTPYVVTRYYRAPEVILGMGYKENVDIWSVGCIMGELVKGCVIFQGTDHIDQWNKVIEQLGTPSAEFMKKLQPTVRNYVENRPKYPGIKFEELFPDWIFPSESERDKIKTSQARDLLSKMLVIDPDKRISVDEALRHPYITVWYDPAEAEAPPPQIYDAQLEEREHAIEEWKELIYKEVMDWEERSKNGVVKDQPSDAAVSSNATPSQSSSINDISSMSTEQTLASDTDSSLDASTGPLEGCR

[6] = molecular target: protein kinases (human kinome) (Homo sapiens, UniProt P50613); settings: for logFC: CDK7 (P50613) protein abundance, degrader vs DMSO, down; for logFC CDK7: CDK7 P50613, experiment wp104
protein kinases (human kinome) (Homo sapiens, UniProt P50613), sequence (P50613 whole entry): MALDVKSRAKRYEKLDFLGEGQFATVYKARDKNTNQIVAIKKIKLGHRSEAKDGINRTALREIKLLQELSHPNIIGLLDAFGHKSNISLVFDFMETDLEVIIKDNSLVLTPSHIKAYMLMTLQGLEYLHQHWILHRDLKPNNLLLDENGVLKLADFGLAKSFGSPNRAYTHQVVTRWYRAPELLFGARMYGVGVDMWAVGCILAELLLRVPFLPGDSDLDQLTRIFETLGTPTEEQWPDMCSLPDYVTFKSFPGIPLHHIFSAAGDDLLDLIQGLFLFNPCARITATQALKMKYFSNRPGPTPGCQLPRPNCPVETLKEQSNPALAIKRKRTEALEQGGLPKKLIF

[7] = molecular target: protein kinases (human kinome) (Homo sapiens, UniProt P53779); settings: for logFC MAPK10 (P53779): direction of change down; for logFC: MAPK10 (P53779), experiment wp104
protein kinases (human kinome) (Homo sapiens, UniProt P53779), sequence (P53779 whole entry): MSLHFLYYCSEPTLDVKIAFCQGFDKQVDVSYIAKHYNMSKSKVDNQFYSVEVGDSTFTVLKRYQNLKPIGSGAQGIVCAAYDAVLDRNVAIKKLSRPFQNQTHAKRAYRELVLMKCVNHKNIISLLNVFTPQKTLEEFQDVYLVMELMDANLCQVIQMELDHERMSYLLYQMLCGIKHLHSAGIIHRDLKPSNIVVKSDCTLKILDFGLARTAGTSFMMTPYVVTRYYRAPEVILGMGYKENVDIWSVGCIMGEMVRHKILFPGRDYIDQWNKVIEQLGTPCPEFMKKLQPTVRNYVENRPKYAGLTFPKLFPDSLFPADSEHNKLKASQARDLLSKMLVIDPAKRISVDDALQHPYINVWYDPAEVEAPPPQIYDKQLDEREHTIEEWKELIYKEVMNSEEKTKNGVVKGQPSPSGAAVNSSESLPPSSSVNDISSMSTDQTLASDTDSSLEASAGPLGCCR

[8] = molecular target: protein kinases (human kinome) (Homo sapiens, UniProt Q00534); settings: for logFC CDK6: CDK6 (Q00534), direction down; for logFC of CDK6 (Q00534): down
protein kinases (human kinome) (Homo sapiens, UniProt Q00534), sequence (Q00534 whole entry): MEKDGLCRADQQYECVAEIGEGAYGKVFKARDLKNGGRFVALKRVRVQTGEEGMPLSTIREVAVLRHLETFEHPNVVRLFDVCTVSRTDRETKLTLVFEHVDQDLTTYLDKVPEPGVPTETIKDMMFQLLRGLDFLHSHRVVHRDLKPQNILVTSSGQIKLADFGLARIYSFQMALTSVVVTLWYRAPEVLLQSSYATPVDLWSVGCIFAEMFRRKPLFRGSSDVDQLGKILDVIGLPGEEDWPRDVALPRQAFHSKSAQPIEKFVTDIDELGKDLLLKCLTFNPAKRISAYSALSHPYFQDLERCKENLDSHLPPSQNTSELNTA

[9] = molecular target: protein kinases (human kinome) (Homo sapiens, UniProt Q00535); settings: for logFC of CDK5: Accession Q00535; for logFC CDK5 (Q00535): direction of change down
protein kinases (human kinome) (Homo sapiens, UniProt Q00535), sequence (Q00535 whole entry): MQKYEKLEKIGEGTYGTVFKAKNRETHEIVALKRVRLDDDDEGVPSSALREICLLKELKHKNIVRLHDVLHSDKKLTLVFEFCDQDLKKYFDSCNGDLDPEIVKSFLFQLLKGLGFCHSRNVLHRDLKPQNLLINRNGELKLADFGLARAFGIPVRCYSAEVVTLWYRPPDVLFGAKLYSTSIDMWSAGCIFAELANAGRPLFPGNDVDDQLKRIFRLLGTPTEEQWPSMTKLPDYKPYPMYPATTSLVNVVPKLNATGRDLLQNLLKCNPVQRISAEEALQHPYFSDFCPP

[10] = molecular target: protein kinases (human kinome) (Homo sapiens, UniProt Q00537); settings: for logFC of CDK17: Accession Q00537; for logFC CDK17 (Q00537): direction of change down
protein kinases (human kinome) (Homo sapiens, UniProt Q00537), sequence (Q00537 whole entry): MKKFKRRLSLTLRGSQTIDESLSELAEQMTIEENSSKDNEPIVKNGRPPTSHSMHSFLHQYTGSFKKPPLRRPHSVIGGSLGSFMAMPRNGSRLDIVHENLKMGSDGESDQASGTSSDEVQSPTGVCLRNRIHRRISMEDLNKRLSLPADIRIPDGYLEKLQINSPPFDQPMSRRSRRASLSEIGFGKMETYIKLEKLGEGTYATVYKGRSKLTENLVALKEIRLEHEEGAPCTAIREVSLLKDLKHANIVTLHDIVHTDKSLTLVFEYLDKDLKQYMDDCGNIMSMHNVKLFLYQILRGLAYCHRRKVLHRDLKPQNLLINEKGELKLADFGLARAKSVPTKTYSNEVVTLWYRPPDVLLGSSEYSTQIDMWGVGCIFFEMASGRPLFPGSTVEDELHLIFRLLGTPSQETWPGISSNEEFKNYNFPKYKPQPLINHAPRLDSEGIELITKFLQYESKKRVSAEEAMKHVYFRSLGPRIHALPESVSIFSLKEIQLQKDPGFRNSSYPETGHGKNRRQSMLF

[11] = system: protein kinases (human kinome); settings: for logFC MAPK8 (P45983-4): direction down; for logFC MAPK8: MAPK8 P45983-4
[12] = molecular target: T2, protein kinases (human kinome) (Homo sapiens, UniProt O95835); settings: LATS1 O95835; experiment wp071
T2 sequence (O95835 1-1130): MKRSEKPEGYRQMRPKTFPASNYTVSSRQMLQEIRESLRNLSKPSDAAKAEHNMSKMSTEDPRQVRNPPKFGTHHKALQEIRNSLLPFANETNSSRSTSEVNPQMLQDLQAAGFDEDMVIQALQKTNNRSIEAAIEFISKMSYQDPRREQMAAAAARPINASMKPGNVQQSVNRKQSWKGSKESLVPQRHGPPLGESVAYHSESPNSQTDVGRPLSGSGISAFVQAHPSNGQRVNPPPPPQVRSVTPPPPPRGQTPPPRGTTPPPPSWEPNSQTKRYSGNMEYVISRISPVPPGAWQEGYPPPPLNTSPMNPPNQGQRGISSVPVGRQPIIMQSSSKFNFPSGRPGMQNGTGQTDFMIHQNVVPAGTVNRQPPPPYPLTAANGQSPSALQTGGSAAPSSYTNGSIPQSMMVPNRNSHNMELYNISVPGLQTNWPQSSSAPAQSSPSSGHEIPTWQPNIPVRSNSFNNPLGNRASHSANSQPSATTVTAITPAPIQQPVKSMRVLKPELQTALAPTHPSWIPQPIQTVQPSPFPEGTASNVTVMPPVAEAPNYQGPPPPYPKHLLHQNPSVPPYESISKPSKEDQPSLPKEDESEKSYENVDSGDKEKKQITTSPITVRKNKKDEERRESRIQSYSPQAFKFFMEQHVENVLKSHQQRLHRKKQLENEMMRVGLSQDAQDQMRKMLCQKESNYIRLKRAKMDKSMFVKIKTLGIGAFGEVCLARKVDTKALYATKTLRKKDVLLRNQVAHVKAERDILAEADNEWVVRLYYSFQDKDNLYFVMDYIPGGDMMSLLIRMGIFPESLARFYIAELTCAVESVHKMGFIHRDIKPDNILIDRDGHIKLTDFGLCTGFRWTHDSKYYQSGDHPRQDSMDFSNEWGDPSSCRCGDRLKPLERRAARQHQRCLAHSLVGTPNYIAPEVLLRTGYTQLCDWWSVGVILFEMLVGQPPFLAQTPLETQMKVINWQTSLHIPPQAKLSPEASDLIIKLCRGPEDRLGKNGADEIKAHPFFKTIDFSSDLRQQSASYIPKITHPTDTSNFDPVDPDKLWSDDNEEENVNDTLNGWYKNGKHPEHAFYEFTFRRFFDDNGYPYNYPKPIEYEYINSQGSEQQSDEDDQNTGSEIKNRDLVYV

[13] = molecular target: protein kinases (human kinome) (Homo sapiens, UniProt P41240); settings: experiment wp071
[14] = molecular target: protein kinases (human kinome) (Homo sapiens, UniProt P42684)
[15] = molecular target: protein kinases (human kinome) (Homo sapiens, UniProt P49674); settings: CSNK1E P49674; experiment wp071
[16] = molecular target: protein kinases (human kinome) (Homo sapiens, UniProt P51451)
[17] = molecular target: protein kinases (human kinome) (Homo sapiens, UniProt P53667); settings: LIMK1 (P53667-1)
protein kinases (human kinome) (Homo sapiens, UniProt P53667), sequence (P53667 whole entry): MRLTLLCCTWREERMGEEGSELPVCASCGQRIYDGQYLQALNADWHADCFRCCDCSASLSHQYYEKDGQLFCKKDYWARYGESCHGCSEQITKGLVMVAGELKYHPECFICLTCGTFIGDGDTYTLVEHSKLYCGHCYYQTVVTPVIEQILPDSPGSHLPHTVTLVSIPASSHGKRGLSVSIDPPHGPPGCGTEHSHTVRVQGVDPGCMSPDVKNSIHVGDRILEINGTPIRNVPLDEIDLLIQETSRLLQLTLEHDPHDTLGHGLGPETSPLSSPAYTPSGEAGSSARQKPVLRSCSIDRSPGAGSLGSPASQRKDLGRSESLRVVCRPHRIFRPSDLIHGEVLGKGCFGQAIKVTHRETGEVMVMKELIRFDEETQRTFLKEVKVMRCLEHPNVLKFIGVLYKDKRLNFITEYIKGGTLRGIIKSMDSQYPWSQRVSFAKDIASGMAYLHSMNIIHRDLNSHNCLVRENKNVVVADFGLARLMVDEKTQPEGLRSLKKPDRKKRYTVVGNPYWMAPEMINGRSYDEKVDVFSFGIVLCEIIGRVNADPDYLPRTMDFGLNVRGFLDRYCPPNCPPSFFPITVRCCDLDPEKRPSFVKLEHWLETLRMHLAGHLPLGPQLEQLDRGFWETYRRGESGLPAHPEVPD

[18] = molecular target: T3, protein kinases (human kinome) (Homo sapiens, UniProt Q13163); settings: experiment wp071
T3 sequence (Q13163 1-448): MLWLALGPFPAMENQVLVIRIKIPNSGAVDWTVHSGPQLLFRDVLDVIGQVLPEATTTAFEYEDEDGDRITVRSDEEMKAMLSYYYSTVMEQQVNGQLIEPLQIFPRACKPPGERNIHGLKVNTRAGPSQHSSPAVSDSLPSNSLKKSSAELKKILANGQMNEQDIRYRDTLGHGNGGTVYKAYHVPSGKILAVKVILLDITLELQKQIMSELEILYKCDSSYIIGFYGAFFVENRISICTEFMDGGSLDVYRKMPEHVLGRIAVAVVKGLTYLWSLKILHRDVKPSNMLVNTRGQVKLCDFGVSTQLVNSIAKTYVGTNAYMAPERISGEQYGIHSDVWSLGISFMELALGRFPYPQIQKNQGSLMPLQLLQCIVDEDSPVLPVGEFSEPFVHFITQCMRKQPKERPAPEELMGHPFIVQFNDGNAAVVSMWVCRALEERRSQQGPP

[19] = molecular target: protein kinases (human kinome) (Homo sapiens, UniProt O60307); settings: experiment wp081
protein kinases (human kinome) (Homo sapiens, UniProt O60307), sequence (O60307 whole entry): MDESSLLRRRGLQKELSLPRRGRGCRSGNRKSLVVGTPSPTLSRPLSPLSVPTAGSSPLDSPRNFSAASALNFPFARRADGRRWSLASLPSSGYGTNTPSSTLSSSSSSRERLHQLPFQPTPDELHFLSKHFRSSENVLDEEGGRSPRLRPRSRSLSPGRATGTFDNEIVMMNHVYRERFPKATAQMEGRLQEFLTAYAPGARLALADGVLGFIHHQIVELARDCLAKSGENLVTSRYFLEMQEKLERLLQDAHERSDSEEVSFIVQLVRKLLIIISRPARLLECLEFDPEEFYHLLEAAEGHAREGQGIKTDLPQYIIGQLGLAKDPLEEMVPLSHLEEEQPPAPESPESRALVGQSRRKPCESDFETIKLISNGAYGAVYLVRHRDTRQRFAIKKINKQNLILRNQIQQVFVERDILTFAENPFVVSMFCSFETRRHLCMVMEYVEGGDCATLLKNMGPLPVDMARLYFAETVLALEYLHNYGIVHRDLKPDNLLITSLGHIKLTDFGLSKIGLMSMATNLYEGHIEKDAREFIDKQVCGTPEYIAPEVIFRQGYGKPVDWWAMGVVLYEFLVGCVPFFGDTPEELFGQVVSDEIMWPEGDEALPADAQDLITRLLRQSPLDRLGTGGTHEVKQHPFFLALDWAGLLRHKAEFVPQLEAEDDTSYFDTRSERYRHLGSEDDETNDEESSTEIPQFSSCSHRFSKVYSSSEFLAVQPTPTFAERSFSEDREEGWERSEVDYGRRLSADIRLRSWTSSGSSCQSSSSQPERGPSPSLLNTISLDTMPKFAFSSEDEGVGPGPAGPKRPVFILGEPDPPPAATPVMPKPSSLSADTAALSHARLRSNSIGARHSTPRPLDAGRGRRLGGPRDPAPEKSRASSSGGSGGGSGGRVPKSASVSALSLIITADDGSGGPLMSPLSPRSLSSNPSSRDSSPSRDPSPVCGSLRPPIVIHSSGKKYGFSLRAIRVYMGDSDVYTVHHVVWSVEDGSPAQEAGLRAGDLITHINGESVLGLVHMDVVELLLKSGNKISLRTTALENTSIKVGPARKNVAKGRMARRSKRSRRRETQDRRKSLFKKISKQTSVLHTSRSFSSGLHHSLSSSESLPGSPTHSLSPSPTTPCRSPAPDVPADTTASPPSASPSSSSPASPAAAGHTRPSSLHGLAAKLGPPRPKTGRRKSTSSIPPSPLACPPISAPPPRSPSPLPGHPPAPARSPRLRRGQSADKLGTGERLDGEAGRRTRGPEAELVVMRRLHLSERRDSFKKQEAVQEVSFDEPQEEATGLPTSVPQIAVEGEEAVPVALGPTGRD

[20] = molecular target: protein kinases (human kinome) (Homo sapiens, UniProt Q16539)

NC(=O)c1c(F)cccc1Nc1nc(NC2CCN(S(=O)(=O)CCNC(=O)CCCCCCCCOc3cccc4c3C(=O)N(C3CCC(=O)NC3=O)C4=O)CC2)ncc1Br (centres unmarked) [TMX.01.160.1]
logFC AURKA (O14965) ([1]; experiment wp104, _0.25): −1.326
logFC AURKA (O14965) ([1]; experiment wp104, _1): −1.466
logFC ([2]; experiment wp104, 0.25): −0.7936
logFC CDK1 ([2]; experiment wp104, 0.25): −0.7936
logFC ([2]; experiment wp104, 1): −0.9413
logFC CDK1 ([2]; experiment wp104, 1): −0.9413
logFC CDK4 (P11802) ([3]; experiment wp104, _0.25): −0.5542
logFC CDK4 (P11802) ([3]; experiment wp104, _1): −0.7676
logFC CDK2 (P24941-1) ([4]; experiment wp104, _0.25): −1.024
logFC CDK2 (P24941-1) ([4]; experiment wp104, _0.25, direction of change down): −1.024
logFC CDK2 (P24941-1) ([4]; experiment wp104, _1): −0.9457
logFC CDK2 (P24941-1) ([4]; experiment wp104, _1, direction of change down): −0.9457
logFC ([5]; _0.25): −1.635
logFC MAPK9 ([5]; _0.25): −1.635
logFC ([5]; _1): −1.496
logFC MAPK9 ([5]; _1): −1.496
logFC ([6]; experiment suffix _0.25): −0.4941
logFC ([6]; experiment suffix _1): −0.5204
logFC CDK7 ([6]; _0.25): −0.4941
logFC CDK7 ([6]; _1): −0.5204
logFC MAPK10 (P53779) ([7]; Experiment wp104_TMX.01.160.1_0.25): −0.5743
logFC MAPK10 (P53779) ([7]; Experiment wp104_TMX.01.160.1_1): −0.5743
logFC ([7]; suffix _0.25): −0.5743
logFC ([7]; suffix _1): −0.5743
logFC CDK6 ([8]; experiment wp104, _0.25): −0.866
logFC CDK6 ([8]; experiment wp104, _1): −0.8425
logFC of CDK6 (Q00534) ([8]; Experiment wp104, _0.25): −0.866
logFC of CDK6 (Q00534) ([8]; Experiment wp104, _1): −0.8425
logFC of CDK5 ([9]; experiment wp104, suffix _0.25): −1.866
logFC of CDK5 ([9]; experiment wp104, suffix _1): −1.827
logFC CDK5 (Q00535) ([9]; experiment wp104, _0.25): −1.866
logFC CDK5 (Q00535) ([9]; experiment wp104, _1): −1.827
logFC of CDK17 ([10]; experiment wp104, suffix _0.25): −0.7788
logFC of CDK17 ([10]; experiment wp104, suffix _1): −0.6817
logFC CDK17 (Q00537) ([10]; experiment wp104, _0.25): −0.7788
logFC CDK17 (Q00537) ([10]; experiment wp104, _1): −0.6817
logFC MAPK8 (P45983-4) ([11]; Experiment wp104, _0.25): −0.3338
logFC MAPK8 (P45983-4) ([11]; Experiment wp104, _1): −0.476
logFC MAPK8 ([11]; experiment wp104, _0.25): −0.3338
logFC MAPK8 ([11]; experiment wp104, _1): −0.476
logFC CDK16 (Q00536-2) ([11]; experiment wp104, 0.25): −0.8646
logFC CDK16 (Q00536-2) ([11]; experiment wp104, 1): −0.6009
logFC CDK16 (Q00536-2) ([11]; experiment wp104, suffix _0.25): −0.8646
logFC CDK16 (Q00536-2) ([11]; experiment wp104, suffix _1): −0.6009

Nc1ncnc2c1c(-c1ccc(Oc3ccccc3)cc1)nn2[C@H]1CC[C@H](N2CCN(CCCCCCNC(=O)COc3cccc4c3C(=O)N(C3CCC(=O)NC3=O)C4=O)CC2)CC1 (some centres unmarked) [SB1.G.200]
logFC [12]: −1.403
logFC LATS1 [12]: −1.403
logFC of CSK ([13]; Accession P41240): −3.011
logFC CSK ([13]; CSK (P41240), down): −3.011
logFC ([14]; ABL2 (P42684) protein abundance, degrader vs DMSO, down): −2.103
logFC ABL2 (P42684) ([14]; experiment wp071): −2.103
logFC [15]: −0.76
logFC CSNK1E [15]: −0.76
logFC BLK ([16]; BLK (P51451), direction down, experiment wp071): −1.525
logFC of BLK (P51451) ([16]; Experiment wp071, down): −1.525
logFC LIMK1 ([17]; direction down, experiment wp071): −0.775
logFC LIMK1 ([17]; experiment wp071, down): −0.775
logFC ([18]; MAP2K5 (Q13163-1)): −1.433
logFC of MAP2K5 (Q13163-1) [18]: −1.433
logFC ABL1 ([11]; ABL1 (P00519-2), experiment wp071): −1.646
logFC FYN ([11]; Accession P06241-2, experiment wp071): −1.777
logFC of SRC ([11]; Accession P12931-2, experiment wp071): −2.174
logFC FYN ([11]; FYN P06241-2, experiment wp071): −1.777
logFC LCK ([11]; LCK, accession P06239-3, experiment wp071, direction of change down): −1.275
logFC ([11]; SRC (P12931-2) protein abundance, degrader vs DMSO, down): −2.174
logFC ABL1 (P00519-2) ([11]; experiment wp071): −1.646
logFC LCK (P06239-3) ([11]; experiment wp071, direction of change down): −1.275

CC(C)(C)c1cc(NC(=O)Nc2ccc(Oc3ccnc(C(=O)NCCOCCOCCNC(=O)CNc4cccc5c4C(=O)N(C4CCC(=O)NC4=O)C5=O)c3)cc2F)n(-c2ccc3ncccc3c2)n1 (centres unmarked) [TL13.178]
logFC MAST3 (O60307) ([19]; direction of change down): −0.4852
logFC MAST3 ([19]; protein MAST3 (O60307), down): −0.4852
logFC CDK4 (P11802) ([3]; experiment wp081): −0.5762
logFC LIMK1 ([17]; direction down, experiment wp081): −0.3359
logFC LIMK1 ([17]; experiment wp081, down): −0.3359
logFC ([20]; MAPK14 (Q16539) protein abundance, degrader vs DMSO, down): −0.5659
logFC MAPK14 ([20]; MAPK14, accession Q16539, experiment wp081, direction of change down): −0.5659
logFC MAP3K20 (Q9NYL2-2) ([11]; Experiment wp081): −1.407
logFC MAPK14 ([11]; MAPK14, accession Q16539-2, experiment wp081, direction of change down): −0.3343
logFC MAPK14 ([11]; MAPK14 Q16539-2, experiment wp081): −0.3343
logFC MAP3K20 (Q9NYL2-2) ([11]; experiment wp081): −1.407
